Assay results published in patent US20040063662A1, “Selenophene anti-tumor agents” (priority 1996, published 2004).
Values after ≈ are worked out from the molar mass of the structure shown. Values joined by “and” are separate entries in the source; they are usually repeats but may differ in a detail not shown here. Equal entries are not always repeated. Where two headings read alike, the source gives them in different places.

How the values were obtained:
[1] = tested on: ras-transformed human bronchial epithelial cells (TBE); experiment: Selective cytotoxicity microculture assay, ras-transformed bronchial epithelial cells; format: cell-based
[2] = target: T1, 50:50 mixture of recombinant mouse PKCα and mouse PKCβ2; experiment: Protein Kinase C (PKC) screening assay; format: biochemical; details: Inhibition of Protein Kinase C
T1 construct: The enzymes are expressed in Sf9 insect cells from recombinant baculovirus and partially purified on DEAE-cellulose and Sephacryl 200 gel filtration
Description: The Protein Kinase C (PKC) screening assay utilized in the following experiments is similar to standard PKC assays used by many investigators. Its primary features are that 1) the assay utilizes a 50:50 mixture of recombinant mouse PKCα and mouse PKCβ2; 2) employs histone as phosphate-accepting substrate; and 3) the PKC enzymatic activity is activated with phosphatidylserine, TPA and low concentration of calcium, so that both calcium and TPA are somewhat limiting for the extent of activation. In this manner the assay is sensitive to inhibitors of PKC activation. A more detailed description of the assay is provided in the following paragraphs.
The recombinant PKC formulation is a mixture (equal parts by activity) of mouse PKCα and mouse PKCβ2. The enzymes are expressed in Sf9 insect cells from recombinant baculovirus and partially purified on DEAE-cellulose and Sephacryl 200 gel filtration. Sufficient PKC is added to each reaction to provide approximately 4 pmols phosphate transferred in 30 minute (per total reaction.) The reaction is linear over the time when 4 pmols of phosphate is transferred and the reaction remains linear well beyond this time frame.
The PKC screening assay is performed in 96 well polystyrene U bottom micro titer plates, in a total reaction volume of 50 ul. Solution manipulations are performed during the assay utilize a Rainin, motorized EDP-plus M8 eight-channel micropipettor.
In some cases 50% DMSO:water, water, or methanol is substituted (if essential) for the solvent. At least 25 μl of the highest concentration sample to be assayed is transferred to a well in a 96 well U-bottom polystyrene assay plate. Serial 5-fold or 10-fold dilutions (depending on the dose-range desired) are made using the EDP-plus M8 eight-channel pipettor in dilute mode and mixing by repipetting. Using the 8-channel pipettor, 2 μl of each dilution is transferred to the appropriate wells of the plate(s) to be used for each assay. Duplicate assays are performed for each dose, with each assay, allowing six wells (half the row) for three-dose assays, or 12 wells (the whole row) for six-dose assays. In general, extracts and fractions are assayed at three doses: 400, 40 an 4 ug/ml, while pure compounds are tested at six doses: 400, 80, 16, 3.2, 0.64, 0.128 ([…]).

[3] = tested on: human renal carcinoma cells (A-498); experiment: Selective cytotoxicity microculture assay, human renal carcinoma
[4] = tested on: normal human renal cells (RPTEC); experiment: Selective cytotoxicity microculture assay, normal human renal cells; format: cell-based
[5] = Homo sapiens, Epithelial cell, read-out: GI50
[6] = Homo sapiens, A498, A-498 human renal carcinoma

Compound	GI50 [1] [ng/mL]	GI50 [1, 5] [ng/mL]	IC50 [2]	GI50 [3, 6] [ng/mL]	GI50 [4]	GI50 ([3]; A-498 human renal carcinoma) [ng/mL]
OCc1ccc(-c2ccc(-c3ccc[se]3)[se]2)[se]1 [compound 675246]	2 (≈ 4.77 nM)	3 (≈ 7.16 nM)	3 × 10^0 μg/ml	0.003 (≈ 0.00716 nM)		
OCc1ccc(-c2ccc(-c3ccc(CO)[se]3)[se]2)[se]1 [compound 675247]	20000 (≈ 44500 nM)	30000 (≈ 66800 nM)	10 µg/mL (≈ 22300 nM)			
OCc1ccc(-c2ccc(-c3ccc(CO)s3)[se]2)s1 [compound 675343]			30 µg/mL (≈ 84400 nM)			
OCc1ccc(-c2ccc(-c3ccc[se]3)s2)[se]1 [compound 676631]			2 × 10^0 μg/ml			
OCc1ccc(-c2ccc(-c3ccc(CO)[se]3)s2)[se]1 [compound 676632]			50 µg/mL (≈ 124000 nM)	0.0003 (≈ 0.000746 nM)	2 ng/mL and 0.3 ng/mL	0.0002 (≈ 0.000497 nM)
